Data set [1] deals with neurons. Put plainly: Neurotoxicity of civamide (applicant's discovery, no method given).
For data set [2] the following is noted: compositions containing civamide, per U.S. Pat. No. 5,063,060; cited from earlier work.
For data set [3], the system named is male Sprague-Dawley rats. The data set can be described thus: Tail flick, hot plate (49° C., 52° C.) and paw pressure pain models after intrathecal administration. In kind it is in vivo, rat. The note with it: 1-100 Φg in 10 or 20 Φl, evaluated seven days later, paw pressure. How it is done: Civamide and capsaicin were each separately administered intrathecally, in dosages of 1 Φg, 5 Φg, 10 Φg, 50 Φg, or 100 Φg in either 10 Φl or 20 Φl of 0.9% USP saline with 25% DMSO suspending agent, 0.9% USP saline and 10% cyclodextrin, and 0.9% USP saline with 0.5% DMSO and 10% cyclodextrin, to male Sprague-Dawley rats into whom intrathecal catheters had been inserted. Seven days later, tail flick, hot plate (49° C., 52° C.) and paw pressure pain models were evaluated.

The format of data set [4] is physicochemical. The source says:
Civamide in amounts of 1 Φg, 5 Φg, 10 Φg, 50 Φg, and 100 Φg was dispersed in both 10 Φl and 20 Φl of each of the following: 100% dimethylsulfoxide (DMSO), normal saline (0.9% w/v sodium chloride) with 10% DMSO as suspending agent, normal saline with 0.5% DMSO and 10% cyclodextrin, 10% cyclodextrin and 10% DMSO as suspending agent, and normal saline with 10% cyclodextrin suspending agent, and normal saline with 25% DMSO. In each case, the saline was 0.9% USP.

In data set [5] the test system is male Sprague-Dawley rats. Put plainly: Pain models after a single intrathecal dose: thermal escape, formalin and thermal injury evoked hyperalgesia, tactile allodynia in the Chung model of neuropathy. In kind it is in vivo, rat. The note with it: single intrathecal dose of 10, 25 or 50 Φg/10 Φl saline with 20% or 25% DMSO. How it is done:
Civamide 10 Φg/10 Φl saline, 25Φg/10 Φl saline, and 50 Φg/10 Φl saline and saline itself were administered intrathecally to male Sprague-Dawley rats. Each of the civamide compositions also included either 20% DMSO or 25% DMSO as a suspending agent. The saline used was 0.9% USP. Eighteen hours, 7 days, 14 days and 28 days after administration of a single intrathecal dose of either civamide or saline, models for various types of pain were evaluated. These included models for acute nociceptive processing (i.e. thermal escape), post tissue injury hyperpathic states (i.e. formalin and thermal injury evoked hyperalgesia) and nerve injury induced hyperpathia (i.e. tactile allodynia in the Chung model of neuropathy).

The values below come from patent US20050085552A1, “Method for providing long-lasting pain relief through intrathecal administration of civamide” (Winston Laboratories, Inc., priority 2003, published 2005).

A value given as a limit tells only on which side of the number the result lay.

In the case of `COc1cc(CNC(=O)CCCC/C=C\C(C)C)ccc1O` [Civamide, cis-8-methyl-N-vanillyl-6-nonenamide], the neurotoxicity entry in data set [1] is recorded as “no significant neurotoxicity”. In data set [2], the “efficacy compared with compositions containing capsaicin” value was “comparable in efficacy” and the “local adverse effects compared with capsaicin” value is on record as “significantly less local adverse effects”. Besides, in data set [3], the “effectiveness versus intrathecally administered capsaicin in pain models” value is “more effective than intrathecally administered capsaicin” and the “effectiveness versus saline in pain models” value was “significantly more effective than saline”. The “physical and chemical stability of compositions” value in data set [4] was “physically and chemically stable”. Further, in data set [5], the “duration of the effects of a single dose” value is recorded as “at least 28 days” and the “time after administration by which effective pain amelioration was produced” value was at most 18 h.
